Results: PMC8234864, “Early Effects of the Soluble Amyloid β25-35 Peptide in Rat Cortical Neurons: Modulation of Signal Transduction Mediated by Adenosine and Group I Metabotropic Glutamate Receptors” (International Journal of Molecular Sciences, 2021)
“Also recorded” adds a separate entry of the source.

Key:
[1] = test system: rat cortical neurons exposed to Aβ25-35; assay: Effect of receptor ligands on Aβ25-35 induced toxicity (MTT); type: cell-based; details: ligand 100 µM added 30 min before Aβ25-35 (25 µM, 24 h)
Description: (§1) Aβ25-35 and Aβ1-42 were water-soluble peptides, however, while Aβ25-35, the functional domain of Aβ required for both neurotrophic and neurotoxic effects, was directly added to neuronal cultures after its solubilisation, Aβ1-42 was solved in water and maintained for 24 h at 37 °C before its addition to promote its aggregation. To test the effect of mGluR ligands on cell death induced by Aβ in neuronal cultures, these drugs were added 30 min before the addition of Aβ25-35 and maintained during Aβ exposure. Unless otherwise indicated, all chemicals were dissolved in water.
(§2) Cell viability was determined on 96-well plates using an in vitro toxicology assay kit based on a mitochondrial-dependent reaction that transforms 3-[4,5-dimetylthiazol-2-yl]-2,5-diphenyltetrazolium bromide (MTT) into formazan crystals. Briefly, at the end of treatments, cells were incubated in culture medium with MTT solution (5 mg/mL) at 37 °C for 3 h. After incubation, MTT solubilization solution (10% Triton X-100 plus 0.1 M HCl in isopropanol anhydrous) was added into the wells to dissolve formazan crystals and the absorbance of each well was measured at 570 nm and 690 nm, according to the manufacturer’s instructions.

[2] = test system: Group I mGluR/PLC signalling pathway; assay: Phospholipase C activity (IP3 accumulation), basal and DHPG-stimulated; type: cell-based, rat; details: added 10 min before DHPG, control cells
Description: This method was previously reported and is divided into two well-defined steps: IP3 accumulation: culture medium was discharged, and cells were washed twice with DMEM containing 20 mM HEPES, pH 7.4. After 20 min at 37 °C, different ligands were added to cells for 10 min at 37 °C to analyse their effect on PLC activity in a final reaction volume of 300 μL. The enzymatic reaction was stopped and cells lysed by adding 50 μL 2.8 M perchloric acid and placing plates on ice for 30 min. The medium was neutralized with 70 μ[…] Tris-HCl, 2 M KOH, and 60 mM EGTA, transferred to Eppendorf tubes and centrifuged at 12,000× g for 10 min. The supernatant was then collected to determine the IP3 level. IP3 level determination: IP3 levels in cells were determined as previously reported by Palmer and modified by […] [100]. Incubation of [^3H]IP3 (0.2 pmol; 3000-5000 cpm) in assay buffer (100 mM Tris-HCl, 4 mM EDTA, 4 mM EGTA, 4 mg/mL BSA, pH 9.0), binding protein (500-600 μg), and 25-50 μL of supernatant obtained from IP3 accumulation assay was carried out. Samples were incubated at 4 °C for 60 min and centrifuged at 12,000× g for 10 min. Pellets were suspended in 100 μL 0.2% SDS and transferred to scintillation vials to measure radioactivity. A standard curve was made with known [^3H]IP3 concentrations (0.25-10 μM). Nonspecific binding was determined in the presence of 10 μM unlabeled IP3. Binding protein was obtained from bovine suprarenal capsules according to Palmer's protocol.

rat cortical neurons = assay: MTT reduction cell viability assay after Aβ exposure; type: cell-based; details: 25 µM, 24 h, MTT, positive control
Description: as §1, §2

Row | Compound | effect on Aβ25-35 induced toxicity [1] | further results
1 | CCNC(=O)[C@H]1O[C@@H](n2cnc3c(N)nc(NCCc4ccc(CCC(=O)O)cc4)nc32)[C@H](O)[C@@H]1O [CGS21680, 2-[p-(2-carboxyethyl)phenylamino]-50-N-ethylcarboxyamide adenosine] | no significant effect | –
2 | OC[C@H]1O[C@@H](n2cnc3c(NC4CCCC4)ncnc32)[C@H](O)[C@@H]1O [CPA, N^6-cyclopentyladenosine] | no significant effect | –
3 | N[C@H](C(=O)O)c1cc(O)cc(O)c1 [DHPG, (S)-3,5-dihydroxyphenylglycine] | no significant effect | –
4 | CCCn1c(=O)c2[nH]c(C3CCCC3)nc2n(CCC)c1=O [DPCPX, 8-Cyclopentyl-1,3-dipropylxanthine] | no significant effect; also recorded: ineffective | –
5 | CO[C@H]1CC[C@@H](C(=O)c2ccc3nc4c(cc3c2)CCCO4)CC1 [JNJ 16259685, (3,4-Dihydro-2H-pyrano[2,3-b]quinolin-7-yl)-(cis-4-methoxycyclohexyl)-methanone] | – | effect on DHPG-elicited PLC stimulation ([2]; 0.5 µM): blocked DHPG-elicited PLC stimulation
6 | Cc1cccc(C#Cc2ccccc2)n1.Cl [MPEP, 2-Methyl-6-(phenylethynyl)pyridine hydrochloride] | – | effect on DHPG-elicited PLC stimulation ([2]; 1 µM): blocked DHPG-elicited PLC stimulation
7 | Nc1nc(NCCc2ccc(O)cc2)nc2nc(-c3ccco3)nn12 [ZM241385, 4-(2-[7-Amino-2-(2-furyl) [1,2,4]triazolo [2,3-a] [1,3,5]triazin-5-ylamino]ethyl)phenol] | no significant effect | –
8 | Aβ1-42: whole amyloid β peptide, kept 24 h at 37 °C to promote aggregation; positive control | – | cell viability (rat cortical neurons): decrease in cell viability
